Our source for the EC50 values is PubChem BioAssay AID1934 (Broad Institute, 2009).

SMILES strings stand for the structures. Records with an inconclusive call do not appear.

This assay relates to DRD oncogenic fibroblast viability, ATP luminescence. The experiment in a line: DRD fibroblast viability loss – cell-based, non-viral oncogenic, luminescence, dose response (AID 1934).

Usually EC50 stands for the midpoint of the concentration-response curve. In the case of `C=C(C=O)CC1CC(O)[C@]2(C)OC3CC4OC5C[C@]6(C)O[C@]7(C)CCC8OC9C[C@]%10(C)OC%11C(C)=CC(=O)OC%11CC%10OC9C[C@@H](C)C8OC7CC6O[C@]5(C)CC5OC5C4OC3CC2O1` (stereo partly specified), the EC50 was 824 nM.
